From patent US9926319B2, “Pyridyl piperidines” (MERCK PATENT GMBH, priority 2014, dated 2018) come the findings set out here.

The nature of data set [1]: CLint (intrinsic clearance) assay, microsomal incubation. Conditions: NADPH, 37° C., up to 30 min; for microsomal CLint at 0.8 μM: human, liver microsomes, pH 7.4, human liver microsomes 0.5 mg/mL protein. It counts as in vitro ADME, Human. As to the method:
2. CLint (Intrinsic Clearance) Assay
A Tecan Genesis workstation (RWS ASY 150/8) was used to perform the microsomal incubations. Analysis was carried out using a Waters ACQUITY UPLC system coupled to an ABSciex API3000 mass spectrometer. Data analysis was performed using Assay Explorer (Symyx).
0.1 M potassium phosphate buffer pH 7.4 containing 1 mM MgCl2
15 mM NADPH in phosphate buffer
5.0 mg protein/mL liver microsomes in phosphate buffer
Each experiment consists of 12 test and 2 reference compounds. The reference compounds are incubated as a cocktail.
Dilution of test compounds was done in 2 steps from a 10 mM DMSO stock solution. First 4 μL stock solution was added to 196 μL of 20% DMSO in potassium phosphate buffer pH 7.4. In a second step 10 μL of the first dilution were added to […] potassium phosphate buffer and 100 μL internal standard solution to a final concentration of 0.8 μM. 100 μL of the final compound dilution were aliquoted into a 96 deep well plate. 12.5 μL liver microsomes were added to each well (0.5 mg/mL final protein concentration) and the samples preincubated for 5 min at 37° C. and 800 rpm agitation.
After the preincubation, 250 μL cold acetonitrile were added to the 0 min samples to prevent a reaction. Following this, 12.5 μL NADPH solution were added to all wells to start the incubation, with the exception of the 0 min and 30 min controls without cofactor, where the NADPH was substituted for phosphate buffer.
The incubations were stopped after 5, 10, 20 and 30 min by adding 250 μL cold acetonitrile to the individual wells.
The quenched samples were then centrifuged at 4000 g for 1 h at 4° C. 100 μL of the supernatant were transferred into 96 well plates for analysis.
The metabolic stability of each compound was determined by measurement of the change in LC-MS/MS peak area over time. Assay Explorer software was used to automatically calculate the slope k of the decline. The intrinsic clearance (CLint) of each compound was then calculated according to the formula: CLint(μL/min/mg protein)=k1000/protein concentration.
CLint is shown for each compound in Table 3 below.
In general terms: Liver microsomes are a subcellular fraction often used to study metabolism.

For a further data set, the system named is Wnt pathway. In words: Cellular assay for Wnt pathway activity (luciferase reporter cell based assay). As to conditions: HEK293 luciferase reporter cell line (ER-DSH, TCF dependent promoter), induced with estrogen (1 μM), read-out: 7df3 IC50. Background: Reporter assays use an easily measured gene product as a stand-in for the process of interest.

Read-outs that look alike come from different tables or passages of the source. Some results are limits rather than exact numbers.

One may read the microsomal CLint as a measure of how fast metabolising enzymes remove a compound, apart from limits set by blood flow. A word on the IC50: it is the point on the concentration scale where inhibition reaches its midpoint. With `CC(C)n1cc(-c2ccc(-c3cncc(Cl)c3N3CCC4(CC3)CNC(=O)O4)cc2)cn1` [Example 36, 8-{3-Chloro-5-[4-(1-isopropyl-1H-pyrazol-4-yl)-phenyl]-pyridin-4-yl}-1-oxa-3,8-diaza-spiro[4.5]decan-2-one], the intrinsic clearance (microsomal CLint) at 0.8 μM in data set [1] worked out at 40 µL/min/mg. In addition, the IC50 in the data set on Wnt pathway (24 h) is 22 nM.

For the molecule `CC(C)n1cc(-c2ccc(-c3cncc(C(F)(F)F)c3N3CCC4(CC3)CNC(=O)O4)cc2)cn1` [Example 38, 8-{3-[4-(1-Isopropyl-1H-pyrazol-4-yl)-phenyl]-5-trifluoromethyl-pyridin-4-yl}-1-oxa-3,8-diaza-spiro[4.5]decan-2-one], the microsomal CLint at 0.8 μM in data set [1] is 16 µL/min/mg. The IC50 in the data set on Wnt pathway (24 h) came to 33 nM.

Consider `CS(=O)(=O)CCn1cc(-c2ccc(-c3cncc(Cl)c3N3CCC4(CC3)CNC(=O)O4)cc2)cn1` [Example 39, 8-(3-Chloro-5-{4-[1-(2-methanesulfonyl-ethyl)-1H-pyrazol-4-yl]-phenyl}-pyridin-4-yl)-1-oxa-3,8-diaza-spiro[4.5]decan-2-one], for which the microsomal CLint at 0.8 μM in data set [1] amounted to 12 µL/min/mg. The IC50 in the data set on Wnt pathway (24 h) was 14 nM.

For the molecule `N#CCCn1cc(-c2ccc(-c3cncc(Cl)c3N3CCC4(CC3)CNC(=O)O4)cc2)cn1` [Example 40, 3-(4-{4-[5-Chloro-4-(2-oxo-1-oxa-3,8-diaza-spiro[4.5]dec-8-yl)-pyridin-3-yl]-phenyl}-pyrazol-1-yl)-propionitrile], the microsomal CLint at 0.8 μM in data set [1] is 61 µL/min/mg. Besides, the IC50 with Wnt pathway (24 h) is 3.9 nM.

Consider `CN1c2ccc(-c3cncc(Cl)c3N3CCC4(CC3)C[C@@H](C(F)(F)F)NC4=O)cc2CS1(=O)=O` [Example 42, (S)-8-[3-Chloro-5-(1-methyl-2,2-dioxo-2,3-dihydro-1H-2l6-benzo[c]isothiazol-5-yl)-pyridin-4-yl]-3-trifluoromethyl-2,8-diaza-spiro[4.5]decan-1-one], for which, in data set [1], the microsomal CLint at 0.8 μM was found to be 57 µL/min/mg. In addition, the IC50 in the data set on Wnt pathway (24 h) worked out at 2.4 nM.

For the molecule `CC(C)(O)Cn1cc(-c2ccc(-c3cncc(Cl)c3N3CCC4(CC3)CNC(=O)O4)cc2)cn1` [Example 43, 8-(3-Chloro-5-{4-[1-(2-hydroxy-2-methyl-propyl)-1H-pyrazol-4-yl]-phenyl}-pyridin-4-yl)-1-oxa-3,8-diaza-spiro[4.5]decan-2-one], the microsomal CLint at 0.8 μM in data set [1] was determined as 11 µL/min/mg. Further, the concentration for half-maximal inhibition (IC50) in the data set on Wnt pathway (24 h) stood at 50 nM.

In the case of `CN1c2ccc(-c3cncc(Cl)c3N3CCC(N)(C(N)=O)CC3)cc2CS1(=O)=O` [Example 44, 4-Amino-5′-chloro-3′-(1-methyl-2,2-dioxo-2,3-dihydro-1H-2l6-benzo[c]isothiazol-5-yl)-3,4,5,6-tetrahydro-2H-[1,4′]bipyridinyl-4-carboxylic acid amide], the microsomal CLint at 0.8 μM in data set [1] was under 10 µL/min/mg. The half-inhibitory concentration (IC50) with Wnt pathway (24 h) was 5.1 nM.

For `O=C1NCC2(CCN(c3c(Cl)cncc3-c3ccc4c(c3)CS(=O)(=O)C4)CC2)O1` [Example 48, 8-[3-Chloro-5-(2,2-dioxo-2,3-dihydro-1H-2l6-benzo[c]thiophen-5-yl)-pyridin-4-yl]-1-oxa-3,8-diaza-spiro[4.5]decan-2-one], the microsomal CLint at 0.8 μM in data set [1] came to 23 µL/min/mg. Also, in the data set on Wnt pathway (24 h), the 50% inhibitory concentration (IC50) worked out at 42 nM.

Take `O=C1NCC2(CCN(c3c(Cl)cncc3-c3ccc4cnccc4c3)CC2)O1` [Example 50, 8-(3-Chloro-5-isoquinolin-6-yl-pyridin-4-yl)-1-oxa-3,8-diaza-spiro[4.5]decan-2-one]: the microsomal CLint at 0.8 μM in data set [1] amounted to 28 µL/min/mg. In addition, the half-inhibitory concentration (IC50) with Wnt pathway (24 h) was 23 nM.

In the case of `CCC1=NNC(=O)C12CCN(c1c(Cl)cncc1-c1ccc3c(c1)CS(=O)(=O)N3C)CC2` [Example 52, 8-[3-Chloro-5-(1-methyl-2,2-dioxo-2,3-dihydro-1H-2l6-benzo[c]isothiazol-5-yl)-pyridin-4-yl]-4-ethyl-2,3,8-triaza-spiro[4.5]dec-3-en-1-one], in data set [1], the microsomal CLint at 0.8 μM turned out to be 70 µL/min/mg. Moreover, the IC50 in the data set with Wnt pathway (24 h) was 0.02 nM.

In the case of `CN1c2ccc(-c3cncc(Cl)c3N3CCC4(CC3)C[C@H](C(F)(F)F)NC4=O)cc2CS1(=O)=O` [Example 53, (R)-8-[3-Chloro-5-(1-methyl-2,2-dioxo-2,3-dihydro-1H-2l6-benzo[c]isothiazol-5-yl)-pyridin-4-yl]-3-trifluoromethyl-2,8-diaza-spiro[4.5]decan-1-one], the microsomal CLint at 0.8 μM in data set [1] turned out to be 42 µL/min/mg. The IC50 with Wnt pathway (24 h) was 15 nM.

For the molecule `CCC1=NNC(=O)C12CCN(c1c(Cl)cncc1-c1ccc(-c3cnn(C)c3)cc1)CC2` [Example 54, 8-{3-Chloro-5-[4-(1-methyl-1H-pyrazol-4-yl)-phenyl]-pyridin-4-yl}-4-ethyl-2,3,8-triaza-spiro[4.5]dec-3-en-1-one], the microsomal CLint at 0.8 μM in data set [1] is 82 µL/min/mg. Also, the IC50 with Wnt pathway (24 h) was determined as 0.92 nM.

With `O=C1NCC2(CCN(c3c(Cl)cncc3-c3ccc(-c4cnn(C5COC5)c4)cc3)CC2)O1` [Example 55, 8-{3-Chloro-5-[4-(1-oxetan-3-yl-1H-pyrazol-4-yl)-phenyl]-pyridin-4-yl}-1-oxa-3,8-diaza-spiro[4.5]decan-2-one], the microsomal CLint at 0.8 μM in data set [1] worked out at 23 µL/min/mg. The IC50 in the data set on Wnt pathway (24 h) was 20 nM.

As for `Cn1cc(-c2ccc(-c3cncc(Cl)c3N3CCC4(CC3)C(=O)NN=C4C(F)(F)F)cc2)cn1` [Example 59, 8-{3-Chloro-5-[4-(1-methyl-1H-pyrazol-4-yl)-phenyl]-pyridin-4-yl}-4-trifluoromethyl-2,3,8-triaza-spiro[4.5]dec-3-en-1-one], in data set [1], the intrinsic clearance (microsomal CLint) at 0.8 μM turned out to be 43 µL/min/mg. The IC50 in the data set with Wnt pathway (24 h) amounted to 17 nM.

As to `O=C1NCC2(CCN(c3c(Cl)cncc3-c3ccc(-c4cnn(C5CC5)c4)cc3)CC2)O1` [Example 60, 8-{3-Chloro-5-[4-(1-cyclopropyl-1H-pyrazol-4-yl)-phenyl]-pyridin-4-yl}-1-oxa-3,8-diaza-spiro[4.5]decan-2-one], the microsomal CLint at 0.8 μM in data set [1] is 23 µL/min/mg. In addition, the concentration for half-maximal inhibition (IC50) in the data set on Wnt pathway (24 h) was 6.1 nM.

As for `Cn1ncc2cc(-c3cncc(Cl)c3N3CCC4(CC3)C(=O)NN=C4C(F)(F)F)ccc21` [Example 61, 8-[3-Chloro-5-(1-methyl-1H-indazol-5-yl)-pyridin-4-yl]-4-trifluoromethyl-2,3,8-triaza-spiro[4.5]dec-3-en-1-one], the microsomal CLint at 0.8 μM in data set [1] amounted to 38 µL/min/mg. Moreover, the IC50 with Wnt pathway (24 h) worked out at 17 nM.

As for `O=C1NCC2(CCN(c3c(Cl)cncc3-c3ccc(-c4cnn([C@H]5CCC[C@@H]5O)c4)cc3)CC2)O1` [Example 62, 8-(3-Chloro-5-{4-[1-((1S,2S)-2-hydroxy-cyclopentyl)-1H-pyrazol-4-yl]-phenyl}-pyridin-4-yl)-1-oxa-3,8-diaza-spiro[4.5]decan-2-one], the microsomal CLint at 0.8 μM in data set [1] came to 37 µL/min/mg. The IC50 in the data set on Wnt pathway (24 h) turned out to be 34 nM.

As for `O=C1NCC2(CCN(c3c(Cl)cncc3-c3ccc(-c4cnn([C@@H]5CCC[C@H]5O)c4)cc3)CC2)O1` [Example 63, 8-(3-Chloro-5-{4-[1-((1R,2R)-2-hydroxy-cyclopentyl)-1H-pyrazol-4-yl]-phenyl}-pyridin-4-yl)-1-oxa-3,8-diaza-spiro[4.5]decan-2-one], the microsomal CLint at 0.8 μM in data set [1] stood at 29 µL/min/mg. Besides, the IC50 with Wnt pathway (24 h) amounted to 30 nM.

As to `O=C1Cc2ccc(-c3cncc(Cl)c3N3CCC4(CCNC4=O)CC3)cc2N1` [Example 64, 8-[3-Chloro-5-(2-oxo-2,3-dihydro-1H-indol-6-yl)-pyridin-4-yl]-2,8-diaza-spiro[4.5]decan-1-one], in data set [1], the microsomal CLint at 0.8 μM came out at 49 µL/min/mg. Further, the concentration for half-maximal inhibition (IC50) with Wnt pathway (24 h) was 19 nM.

`CN1C(=O)Cc2cc(-c3cncc(Cl)c3N3CCC4(CC3)CC(=O)NC4=O)ccc21` [Example 65, 8-[3-Chloro-5-(1-methyl-2-oxo-2,3-dihydro-1H-indol-5-yl)-pyridin-4-yl]-2,8-diaza-spiro[4.5]decane-1,3-dione]: the microsomal CLint at 0.8 μM in data set [1] is under 10 µL/min/mg. Also, the IC50 in the data set on Wnt pathway (24 h) worked out at 21 nM.

With `Cn1ncc2ccc(-c3cncc(Cl)c3N3CCC4(CC3)CC(=O)NC4=O)cc21` [Example 66, 8-[3-Chloro-5-(1-methyl-1H-indazol-6-yl)-pyridin-4-yl]-2,8-diaza-spiro[4.5]decane-1,3-dione], in data set [1], the microsomal CLint at 0.8 μM was under 10 µL/min/mg. Further, in the data set on Wnt pathway (24 h), the IC50 amounted to 15 nM.

For `Cn1cc(-c2ccc(-c3cncc(Cl)c3N3CCC4(CC3)C(=O)Nc3cccnc34)cc2)cn1` [Example 68], in data set [1], the intrinsic clearance (microsomal CLint) at 0.8 μM was found to be 65 µL/min/mg. The IC50 in the data set on Wnt pathway (24 h) was 1.4 nM.

In the case of `Cn1cc(-c2ccc(-c3cncc(Cl)c3N3CCC4(CC3)C(=O)Nc3ccccc34)cc2)cn1` [Example 69], the microsomal CLint at 0.8 μM in data set [1] was determined as 89 µL/min/mg. Also, in the data set with Wnt pathway (24 h), the IC50 was 1.1 nM.

For `Cn1ncc2cc(-c3cncc(Cl)c3N3CCC4(CC3)C(=O)NCC4O)ccc21` (stereo not drawn) [Example 70, 8-[3-Chloro-5-(1-methyl-1H-indazol-5-yl)-pyridin-4-yl]-4-hydroxy-2,8-diaza-spiro[4.5]decan-1-one], the “Human Clint” value in data set [1] (human liver microsomes 0.5 mg/mL protein) was 24 µL/min/mg. The IC50 with Wnt pathway (24 hours) stood at 20 nM.
